IC50 data for 28 molecules are collected here from patent publication US20250179045A1, “LPAR1 ANTAGONISTS AND USES THEREOF” (Contineum Therapeutics, Inc., priority 2021, published 2025).

Broadly, the pIC50 is the negative decadic logarithm of the IC50, by convention in mol/L.

pIC50: −log10 of the molar value.

This assay deals with human LPA1 (Homo sapiens, UniProt Q92633). In words: In vitro functional assay of lysophosphatidic acid receptor 1 activity (calcium flux). In kind it is cell-based. To be noted: B103 cells stably expressing human LPA1; Fluo-4 NW calcium flux after lysophosphatidic acid (18:1) at EC80; compounds 100 pM to 10 μM; read-out: LPA1 IC50. The method, then: In vitro functional assay of lysophosphatidic acid receptor 1 activity
Sequence of human LPA1 (Q92633 whole entry): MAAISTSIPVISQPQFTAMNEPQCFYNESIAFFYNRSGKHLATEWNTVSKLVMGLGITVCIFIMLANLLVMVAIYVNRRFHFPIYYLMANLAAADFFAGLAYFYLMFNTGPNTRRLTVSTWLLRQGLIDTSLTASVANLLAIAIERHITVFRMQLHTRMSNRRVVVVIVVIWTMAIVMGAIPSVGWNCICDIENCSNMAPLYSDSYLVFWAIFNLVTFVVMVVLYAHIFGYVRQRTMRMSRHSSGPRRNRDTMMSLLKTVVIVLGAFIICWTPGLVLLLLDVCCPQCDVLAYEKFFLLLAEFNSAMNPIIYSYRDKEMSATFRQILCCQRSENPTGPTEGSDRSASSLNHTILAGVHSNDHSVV
Primary compound plates were prepared in 100% DMSO (Sigma-Aldrich), secondary compound plates were prepared at 10× concentration in DiVEM (Invitrogen), and tertiary compound plates were prepared at 3x concentration in assay buffer containing HBSS (no Ca^+2/Mg^+2, Invitrogen) and 0.1% BSA (Sigma-Aldrich). Fluo-4 NW calcium assay dye (Invitrogen) was prepared as per manufacturer's recommendations in assay buffer. B103 cells stably expressing human LPA1(J. Chun lab, UCSD) were grown to confluency in DMEM media (Invitrogen) containing 10% FBS (ATCC), […] (Sigma-Aldrich) and […] Geneticin (Sigma-Aldrich), and detached with Accutase (Sigma-Aldrich) prior to assay. The freshly detached cells were resuspended in growth media and plated in black, clear-bottom 96-well plates (Costar) containing compound (i.e., secondary compound plate) at a density of 5×10^4 cells/well. Once plated, cells were left at room temperature for 30 minutes and then transferred to a 37° C., […] incubator for 24 hours. After 24 hours, the growth media was then removed and freshly prepared Fluo-4 NW calcium assay dye was added to cells. Compounds (i.e. tertiary compound plates) were then added back to the dye/cells, returned to the incubator for 30 minutes, and then kept at room temperature for an additional 30 minutes. Finally, lysophosphatidic acid (18:1) at the EC80 concentration was added and calcium flux measured using FlexStation 3 (Molecular Devices). Sigmoidal dose-response curves were generated by measuring […] over 45 sec and calculating the area under the curve. Dose response curves and IC50 values were generated using Prism (GraphPad). Compounds were tested at a final concentration range of 100 pM to 10 μM in 0.10% DMSO.
Background: Calcium flux is commonly read through the fluorescence of an indicator in the cells.
For the molecule `COc1ccc(NC(=O)C2(c3ccccc3C(C)C)CNC(=O)C2)c(OC(F)F)n1` (single isomer, unassigned) [Example 8, N-(2-(difluoromethoxy)-6-methoxypyridin-3-yl)-3-(2-isopropylphenyl)-5-oxopyrrolidine-3-carboxamide], the negative-log IC50 (pIC50) is above 8.00.
`Cc1ccc(NC(=O)C2(c3ncccc3C(C)C)CC(CC(=O)O)C2)c(OC(F)F)n1` (stereo not shown) [Example 48, 2-(3-((2-(difluoromethoxy)-6-methylpyridin-3-y1)carbamoyl)-3-(3-isopropylpyridin-2-yl)cyclobutyl)acetic acid]: the pIC50 was 7.00 to 8.00.
For `Cc1cc(OC(F)F)c(NC(=O)C2(c3ccccc3C(C)C)CC(O)(C(F)(F)C(=O)O)C2)cn1` (single isomer, unassigned) [Example 94-isomer A, 2-(3-((4-(difluoromethoxy)-6-methylpyridin-3-yl)carbamoyl)-1-hydroxy-3-(2-isopropylphenyl)cyclobutyl)-2,2-difluoroacetic acid] the value was 6.00 to 7.00.
For `COc1ccc(NC(=O)C2(c3ccccc3C(C)C)CC(CO)C2)c(OC)n1` (stereo not shown) [Example 60, N-(2,6-dimethoxypyridin-3-yl)-3-(hydroxymethyl)-1-(2-isopropylphenyl)cyclobutane-1-carboxamide] the value was 7.00 to 8.00; for `COc1ccc(NC(=O)C2(c3ccccc3C(C)C)CCC(C(N)=O)CC2)c(OC(F)F)n1` (mixture of isomers) [Example 96, N^1-(2-(difluoromethoxy)-6-methoxypyridin-3-yl)-1-(2-isopropylphenyl)cyclohexane-1,4-dicarboxamide], 6.00 to 7.00; for `COc1ccc(NC(=O)C2(c3ccccc3C(C)C)CC(Cc3nnn[nH]3)C2)c(OC(F)F)n1` (stereo not shown) [Example 113, 3-((1H-tetrazol-5-yl)methyl)-N-(2-(difluoromethoxy)-6-methoxypyridin-3-yl)-1-(2-isopropylphenyl)cyclobutane-1-carboxamide], above 8.00.
For `Cc1ccc(NC(=O)C2(c3ccccc3C(C)C)CC(CC(=O)O)C2)c(OC(F)F)n1` (mixture of isomers) [Example 45, 2-(3-((2-(difluoromethoxy)-6-methylpyridin-3-yl)carbamoyl)-3-(2-isopropylphenyl)cyclobutyl)acetic acid], the pIC50 is above 8.00.
Next, `COc1nc(NC(=O)C2(c3ccccc3C(C)C)CNC(=O)C2)c(OC(F)F)cc1Cl` (stereo not shown) [Example 12, N-(5-chloro-3-(difluoromethoxy)-6-methoxypyridin-2-yl)-3-(2-isopropylphenyl)-5-oxopyrrolidine-3-carboxamide]: below 6.00; `Cc1ccc(NC(=O)C2(c3ccccc3C(C)C)CC(CS(C)(=O)=O)C2)c(OC(F)F)n1` (stereo not shown) [Example 64, N-(2-(difluoromethoxy)-6-methylpyridin-3-yl)-1-(2-isopropylphenyl)-3-((methylsulfonyl)methyl)cyclobutane-1-carboxamide]: 6.00 to 7.00; `COc1ccc(NC(=O)C2(c3ccccc3C(C)C)CCC(=O)CC2)c(OC(F)F)n1` [Example 80, N-(2-(difluoromethoxy)-6-methoxypyridin-3-yl)-1-(2-isopropylphenyl)-4-oxocyclohexane-1-carboxamide]: 7.00 to 8.00.
In the case of `COc1cc(Cl)ncc1NC(=O)C1(c2ccccc2C(C)C)CC(O)(C(F)(F)C(=O)O)C1` (stereo not shown) [Example 56, 2-(3-((6-chloro-4-methoxypyridin-3-yl)carbamoyl)-1-hydroxy-3-(2-isopropylphenyl)cyclobutyl)-2,2-difluoroacetic acid], the pIC50 is 7.00 to 8.00.
For `COc1ccc(NC(=O)C2(c3ccccc3C(C)C)CC(O)(C(F)(F)C(=O)O)C2)c(OC(F)F)n1` (single isomer, unassigned) [Example 54-isomer A, 2-(3-((2-(difluoromethoxy)-6-methoxypyridin-3-yl)carbamoyl)-1-hydroxy-3-(2-isopropylphenyl)cyclobutyl)-2,2-difluoroacetic acid] the value was above 8.00.
`Cc1ccc(NC(=O)C2(c3ccccc3C(C)C)CCC2)c(OC(F)F)n1` [Example 73, N-(2-(difluoromethoxy)-6-methylpyridin-3-yl)-1-(2-isopropylphenyl)cyclobutane-1-carboxamide]: the pIC50 is below 6.00.
As for `CC(=O)N(C)C1CC(C(=O)Nc2ccc(C)nc2OC(F)F)(c2ccccc2C(C)C)C1` (mixture of isomers) [Example 43, N-(2-(difluoromethoxy)-6-methylpyridin-3-yl)-1-(2-isopropylphenyl)-3-(N-methylacetamido)cyclobutane-1-carboxamide], the pIC50 is 7.00 to 8.00.
On to `CC(C)c1ccccc1C1(C(=O)Nc2ccc(Cl)cc2OC(F)F)CCOCC1` [Example 14, N-(4-chloro-2-(difluoromethoxy)phenyl)-4-(2-isopropylphenyl)tetrahydro-2H-pyran-4-carboxamide], for which the pIC50 is 6.00 to 7.00.
For `COc1ccc(NC(=O)[C@]2(c3ccccc3C(C)C)C[C@@H](CC(N)=O)C2)c(OC(F)F)n1` [Example 118, trans-3-(2-amino-2-oxoethyl)-N-(2-(difluoromethoxy)-6-methoxypyridin-3-yl)-1-(2-isopropylphenyl)cyclobutane-1-carboxamide] the value was 7.00 to 8.00.
For `Cc1ccc(NC(=O)C2(c3ccccc3C(C)C)CC(N3CC(O)C3)C2)c(OC(F)F)n1` (stereo not shown) [Example 42, N-(2-(difluoromethoxy)-6-methylpyridin-3-yl)-3-(3-hydroxyazetidin-1-yl)-1-(2-isopropylphenyl)cyclobutane-1-carboxamide] the value was 6.00 to 7.00.
For `COc1ccc(NC(=O)C2(c3ccccc3C(C)C)COC2)c(OC2CC2)n1` [Example 29, N-(2-cyclopropoxy-6-methoxypyridin-3-yl)-3-(2-isopropylphenyl)oxetane-3-carboxamide] the value was 6.00 to 7.00.
`Cc1ccc(NC(=O)C2(c3ccccc3C(C)C)CC(C(=O)O)C2)c(OC(F)F)n1` (stereo not shown) [Example 65, 3-((2-(difluoromethoxy)-6-methylpyridin-3-yl)carbamoyl)-3-(2-isopropylphenyl)cyclobutane-1-carboxylic acid]: the pIC50 was 7.00 to 8.00.
For `COc1ccc(NC(=O)C2(c3ccccc3C(C)C)CCC(C)(O)CC2)c(OC(F)F)n1` (single isomer, unassigned) [Example 83-isomer B, N-(2-(difluoromethoxy)-6-methoxypyridin-3-yl)-4-hydroxy-1-(2-isopropylphenyl)-4-methylcyclohexane-1-carboxamide] the value was 7.00 to 8.00; for `Cc1ccc(NC(=O)C2(c3ccccc3C(C)C)CC(=O)N(C)C2)c(OC(F)F)c1` (stereo not shown) [Example 110, N-(2-(difluoromethoxy)-4-methylphenyl)-3-(2-isopropylphenyl)-1-methyl-5-oxopyrrolidine-3-carboxamide], 7.00 to 8.00.
For `Cc1ccc(NC(=O)C2(c3ccccc3C(C)C)COC2)c(OC(F)F)n1` [Example 17, N-(2-(difluoromethoxy)-6-methylpyridin-3-yl)-3-(2-isopropylphenyl)oxetane-3-carboxamide] the value was 7.00 to 8.00; for `CC(C)c1ccccc1C1(C(=O)Nc2ccc(F)cc2OC(F)F)COC1` [Example 27, N-(2-(difluoromethoxy)-4-fluorophenyl)-3-(2-isopropylphenyl)oxetane-3-carboxamide], 7.00 to 8.00.
Turning to `Cc1ccc(NC(=O)C2(c3ccccc3C(C)C)CC(N(C)S(C)(=O)=O)C2)c(OC(F)F)n1` (stereo not shown) [Example 44, N-(2-(difluoromethoxy)-6-methylpyridin-3-yl)-1-(2-isopropylphenyl)-3-(N-methylmethylsulfonamido)cyclobutane-1-carboxamide], the pIC50 is 6.00 to 7.00.
`Cc1ccc(NC(=O)C2(c3ccccc3C(C)C)CC(C)(O)C2)c(OC(F)F)n1` (single isomer, unassigned) [Example 51-isomer A, N-(2-(difluoromethoxy)-6-methylpyridin-3-yl)-3-hydroxy-1-(2-isopropylphenyl)-3-methylcyclobutane-1-carboxamide]: the pIC50 was 6.00 to 7.00.
Next, `COc1ccc(NC(=O)C2(c3ccccc3C(C)C)COC2)c(OC(C)C)n1` [Example 30, N-(2-isopropoxy-6-methoxypyridin-3-yl)-3-(2-isopropylphenyl)oxetane-3-carboxamide]: 7.00 to 8.00.
Turning to `Cc1ccc(NC(=O)C2(c3ccccc3C(C)C)CC(C(=O)N(C)C)C2)c(OC(F)F)n1` (stereo not shown) [Example 66, N^1-(2-(difluoromethoxy)-6-methylpyridin-3-yl)-1-(2-isopropylphenyl)-N^3,N^3-dimethylcyclobutane-1,3-dicarboxamide], the negative-log IC50 (pIC50) is 6.00 to 7.00.
For `Cc1ccc(NC(=O)C2(c3ccccc3C(C)C)CC(Cc3nnn[nH]3)C2)c(OC(F)F)n1` (mixture of isomers) [Example 112, 3-((1H-tetrazol-5-yl)methyl)-N-(2-(difluoromethoxy)-6-methylpyridin-3-yl)-1-(2-isopropylphenyl)cyclobutane-1-carboxamide] the value was 7.00 to 8.00.
